We go through 1 compound from patent US9150603B2, “2′-cyano substituted nucleoside derivatives and methods of use thereof useful for the treatment of viral diseases” (priority 2011, dated 2015).

For one data set, the system named is replicon cells. As to the kind of experiment: Cytotoxicity in replicon cells (MTS assay). Conditions: CC50, MTS assay, three days post dosing. In general terms: A replicon is a self-replicating genome or part of one, used to study replication in cells.
The test system of a further data set is Replicon (1a). As to the kind of experiment: microbe, parasite or virus in culture. Particulars: Hepatitis C virus; 1a replicon, marked (1a) in the cell. In kind it is cell-based, HCV.

On to `CC(C)OC(=O)[C@H](C)NP(=O)(OC[C@H]1O[C@@H](n2ccc(N)nc2=O)[C@](C)(C#N)[C@@H]1O)Oc1ccccc1` (some centres unmarked) [drawing 363], for which the Cytotoxicity with replicon cells was above 100 µM. Moreover, the EC50 (as a rule, the concentration at which the effect is half-maximal) in the data set with Replicon (1a) turned out to be 900 nM.
